Assay results: patent US11878971B2, “Piperlongumine-based compound and immuno regulator comprising the same” (HUSCION CO., LTD., priority 2020, dated 2024)
“Also recorded” adds a separate entry of the source.

Tests used:
NF-κB signaling pathway = experiment: Reporter gene assay THP1-Lucia NF-κB; type: cell-based; conditions: THP1-Lucia NF-κB cells stimulated with LPS; FIG. 11
Protocol: (§1) In the present test example, THP1-Lucia NF-κB, HEK-Lucia RIG-1, HEK-Blue-IL-4/IL-13, and HEK-Blue IL-10 cell lines were purchased from InVivoGen, and evaluated for inhibitory activity on immune cell signaling, and the analysis was performed according to the manufacturer's analysis method. Specifically, the four types of cell lines were treated with each of test substances, which are the piperlongumine-based compounds 1 to 19, and then treated with each of promoter stimulants (LPS, 3p-hpRNA, interleukin-4, and interleukin-10). The response was induced according to the guidelines, and then the activity inhibitory ability was analyzed.

RIG1 = experiment: Reporter gene assay HEK-Lucia RIG-1; type: cell-based; conditions: HEK-Lucia RIG-1 cells, stimulant 3p-hpRNA; FIG. 12
Protocol: as §1

STAT3 signaling = experiment: Reporter gene assay HEK-Blue IL-10; type: cell-based; conditions: HEK-Blue IL-10 cells, stimulant interleukin-10; FIG. 13
Protocol: as §1

STAT6 signaling = experiment: Reporter gene assay HEK-Blue-IL-4/IL-13; type: cell-based; conditions: HEK-Blue-IL-4/IL-13 cells, stimulant interleukin-4; FIG. 14
Protocol: as §1
STAT6 is a transcription factor that plays a role in modulating the expression of various cytokines, hormones, and growth factors by signals coming from the outside. IL-4/IL-13 and STAT6 are also important modulator of Th2.

IL-2 gene expression = experiment: T cell-dependent cytokine IL-2 gene expression inhibition, splenocytes ex vivo; conditions: Balb/c mouse splenocytes, CD3 monoclonal antibody stimulation; control cyclosporine (CsA); FIG. 6
IFNγ expression = experiment: T cell-dependent cytokine IFNγ gene expression inhibition, splenocytes ex vivo; conditions: Balb/c mouse splenocytes, CD3 monoclonal antibody stimulation; FIG. 7
IL-4 gene expression = experiment: T cell-dependent cytokine IL-4 gene expression inhibition, splenocytes ex vivo; conditions: Balb/c mouse splenocytes, CD3 monoclonal antibody stimulation; control cyclosporine (CsA); FIG. 8
IL-17a gene expression = experiment: T cell-dependent cytokine IL-17a gene expression inhibition, splenocytes ex vivo; conditions: Balb/c mouse splenocytes, CD3 monoclonal antibody stimulation

Structure (SMILES) | NF-κB activity inhibitory effect (NF-κB signaling pathway) | RIG1 activity inhibitory effect (RIG1) | STAT3 activity inhibitory effect (STAT3 signaling) | STAT6 activity inhibitory effect (STAT6 signaling) | IL-2 gene expression inhibitory activity (IL-2 gene expression) | inhibitory ability on Th1-derived IFNγ expression (IFNγ expression) | IL-4 gene expression inhibitory activity (IL-4 gene expression) | IL-17a gene expression inhibitory activity (IL-17a gene expression; control cyclosporine (CSA), FIG. 10) | IL-17a gene expression inhibitory activity, fold higher compared with Compound 3 (IL-17a gene expression; relative to Compound 3) | IL-17a gene expression inhibitory activity, fold higher compared with Compound 9 (IL-17a gene expression; relative to Compound 9)
COC(=O)c1cc(/C=C/C(=O)N2CCC=CC2=O)ccc1OC [Compound 1, (E)-methyl-2-methoxy-5-(3-oxo-3-(2-oxo-5,6-dihydropyridin-1(2H)-yl)prop-1-en-1-yl)benzoate] | very high NF-κB activity inhibitory ability | very high RIG1 activity inhibitory ability | very high STAT3 activity inhibitory ability | very high STAT6 activity inhibitory ability | IL-2 gene expression inhibitory activity at a significant level equal to or greater than that of cyclosporine; also recorded: effectively inhibit | effectively inhibit | IL-4 gene expression inhibitory activity at a significant level equal to or greater than that of cyclosporine; also recorded: effectively inhibit | excellent IL-17a expression inhibitory activity compared with cyclosporine | at least 6 fold | at least 3 fold
COC(=O)c1cc(/C=C/C(=O)N2CCC=C(Cl)C2=O)ccc1OC [Compound 3, (E)-methyl-5-(3-(3-chloro-2-oxo-5,6-dihydropyridin-1(2H)-yl)-3-oxoprop-1-en-1-yl)-2-methoxybenzoate] | very high NF-κB activity inhibitory ability | very high RIG1 activity inhibitory ability | very high STAT3 activity inhibitory ability | very high STAT6 activity inhibitory ability | IL-2 gene expression inhibitory activity at a significant level equal to or greater than that of cyclosporine; also recorded: effectively inhibit | effectively inhibit | IL-4 gene expression inhibitory activity at a significant level equal to or greater than that of cyclosporine; also recorded: effectively inhibit |  |  | 
COC(=O)c1cc(/C=C/C(=O)N2CCC=C(Br)C2=O)ccc1OC [Compound 9, (E)-methyl-5-(3-(3-bromo-2-oxo-5,6-dihydropyridin-1(2H)-yl)-3-oxoprop-1-en-1-yl)-2-methoxybenzoate] | very high NF-κB activity inhibitory ability | very high RIG1 activity inhibitory ability | very high STAT3 activity inhibitory ability |  | IL-2 gene expression inhibitory activity at a significant level equal to or greater than that of cyclosporine; also recorded: effectively inhibit | effectively inhibit | IL-4 gene expression inhibitory activity at a significant level equal to or greater than that of cyclosporine; also recorded: effectively inhibit |  |  | 
COC(=O)c1cc(/C=C/C(=O)N2CCC=C(Br)C2=O)ccc1O [Compound 10, (E)-methyl-5-(3-(3-bromo-2-oxo-5,6-dihydropyridin-1(2H)-yl)-3-oxoprop-1-en-1-yl)-2-hydroxybenzoate] |  | very high RIG1 activity inhibitory ability | very high STAT3 activity inhibitory ability |  |  |  |  |  |  | 
COC(=O)c1cc(/C=C/C(=O)N2CCC=C(Br)C2=O)ccc1OC(C)=O [Compound 11, (E)-methyl-2-acetoxy-5-(3-(3-bromo-2-oxo-5,6-dihydropyridin-1(2H)-yl)-3-oxoprop-1-en-1-yl)benzoate] |  |  |  |  |  |  | IL-4 gene expression inhibitory activity at a significant level equal to or greater than that of cyclosporine |  |  | 
COC(=O)c1cc(/C=C/C(=O)N2CCC=C(Cl)C2=O)ccc1O [Compound 12, (E)-methyl-5-(3-(3-chloro-2-oxo-5,6-dihydropyridin-1(2H)-yl)-3-oxoprop-1-en-1-yl)-2-hydroxybenzoate] |  |  | very high STAT3 activity inhibitory ability | very high STAT6 activity inhibitory ability |  |  |  |  |  | 
COC(=O)c1cc(/C=C/C(=O)N2CCC=C(Cl)C2=O)ccc1OC(C)=O [Compound 13, (E)-methyl-2-acetoxy-5-(3-(3-chloro-2-oxo-5,6-dihydropyridin-1(2H)-yl)-3-oxoprop-1-en-1-yl)benzoate] |  |  | very high STAT3 activity inhibitory ability | very high STAT6 activity inhibitory ability |  |  |  |  |  | 
O=C(/C=C/c1cccc([N+](=O)[O-])c1)N1CCC=C(Cl)C1=O [Compound 16, (E)-3-chloro-1-(3-(3-nitrophenyl)acryloyl)-5,6-dihydropyridin-2(1H)-one] |  |  | very high STAT3 activity inhibitory ability | very high STAT6 activity inhibitory ability |  |  |  |  |  | 
